Patent US20250179047A1, “5-[7-(3,4-DIHYDRO-1H-ISOQUINOLINE-2-CARBONYL)-1,2,3,4 TETRAHYDROISOQUINOLIN-6-YL]-1H-PYRROLE-3-CARBOXAMIDE DERIVATIVES, PHARMACEUTICAL COMPOSITIONS CONTAINING THEM AND THEIR USES AS PRO-APOPTOTIC AGENTS” (LES LABORATOIRES SERVIER, priority 2022, published 2025)

Legend:
[1] = test system: KMS12PE Bcl2 A113G; experiment: In vitro cytotoxicity CellTiterGlo 72 h, KMS12PE Bcl2 A113G; assay type: cell-based; conditions: Homo sapiens, KMS-12-PE, read-out: C50 nM, KMS12PE Bcl2 A113G
Method: (§1) KMS-12-PE (ACC 606) were purchased from the Leibniz-Institute DSMZ (Braunschweig, Germany) and were grown at 37° C. in a humidified atmosphere with 5% CO2 in media recommended by the suppliers. Lentiviral particles containing Bcl-2 wild type (also named “Bcl2 WT”), Bcl-2 mutated on G101V (also named “Bcl2 G101V”), Bcl-2 mutated on D103Y (also named “Bcl2 D103Y”), Bcl-2 mutated on D103V (also named “Bcl2 D103V”), Bcl-2 mutated on D103E (also named “Bcl2 D103E”), Bcl-2 mutated on F104I (also named “Bcl2 F104I”), Bcl-2 mutated on F104L (also named “Bcl2 F104L”), Bcl-2 mutated on D111A (also named “Bcl2 D111A”), Bcl-2 mutated on A113G (also named “Bcl2 A113G”), Bcl-2 mutated on R129L (also named “Bcl2 R129L”), Bcl-2 mutated on V156D (also named “Bcl2 V156D”) were cloned into pcLV-CMV-DEST-IRES-TagRFP. Lentiviral particles (1×10^6) were mixed with Polybrene at 8 μg/ml and transduced by spinoculation for 1 h at 32° C. and incubated overnight. After 8 days, TagRFP positive-cells were sorted by FACS. BCL2 expression was monitored by immunoblotting using anti-Flag and anti-BCL2 antibodies. Cells were seeded into 96-wells plates and treated with 1:3.16 serial dilution of compounds (9 different concentrations). Cell viability was assessed using CellTiterGlo reagent following treatment for 72 h. Results were normalized to the viability of cells without compounds (control wells). The C50 values were calculated using nonlinear regression algorithms in XCell software.

[2] = test system: KMS12PE Bcl2 D103V; experiment: In vitro cytotoxicity CellTiterGlo 72 h, KMS12PE Bcl2 D103V; assay type: cell-based; conditions: Homo sapiens, KMS-12-PE, read-out: C50 nM, KMS12PE Bcl2 D103V
Method: as §1

[3] = test system: KMS12PE Bcl2 WT; experiment: In vitro cytotoxicity CellTiterGlo 72 h, KMS12PE Bcl2 WT; assay type: cell-based; conditions: Homo sapiens, KMS-12-PE, read-out: C50 nM, KMS12PE Bcl2 WT
Method: as §1

[4] = test system: KMS12PE Bcl2 F104L; experiment: In vitro cytotoxicity CellTiterGlo 72 h, KMS12PE Bcl2 F104L; assay type: cell-based; conditions: Homo sapiens, KMS-12-PE, read-out: C50 nM, KMS12PE Bcl2 F104L
Method: as §1

[5] = test system: KMS12PE Bcl2 D103Y; experiment: In vitro cytotoxicity CellTiterGlo 72 h, KMS12PE Bcl2 D103Y; assay type: cell-based; conditions: Homo sapiens, KMS-12-PE, read-out: C50 nM, KMS12PE Bcl2 D103Y
Method: as §1

[6] = test system: KMS12PE Bcl2 F104I; experiment: In vitro cytotoxicity CellTiterGlo 72 h, KMS12PE Bcl2 F104I; assay type: cell-based; conditions: Homo sapiens, KMS-12-PE, read-out: C50 nM, KMS12PE Bcl2 F104I
Method: as §1

[7] = test system: KMS12PE Bcl2 D111A; experiment: In vitro cytotoxicity CellTiterGlo 72 h, KMS12PE Bcl2 D111A; assay type: cell-based; conditions: Homo sapiens, KMS-12-PE, read-out: C50 nM, KMS12PE Bcl2 D111A
Method: as §1

[8] = test system: KMS12PE Bcl2 G101V; experiment: In vitro cytotoxicity CellTiterGlo 72 h, KMS12PE Bcl2 G101V; assay type: cell-based; conditions: Homo sapiens, KMS-12-PE, read-out: C50 nM, KMS12PE Bcl2 G101V
Method: as §1

[9] = test system: KMS12PE Bcl2 V156D; experiment: In vitro cytotoxicity CellTiterGlo 72 h, KMS12PE Bcl2 V156D; assay type: cell-based; conditions: Homo sapiens, KMS-12-PE, read-out: C50 nM, KMS12PE Bcl2 V156D
Method: as §1

[10] = test system: KMS12PE Bcl2 R129L; experiment: In vitro cytotoxicity CellTiterGlo 72 h, KMS12PE Bcl2 R129L; assay type: cell-based; conditions: Homo sapiens, KMS-12-PE, read-out: C50 nM, KMS12PE Bcl2 R129L
Method: as §1

[11] = test system: KMS12PE Bcl2 D103E; experiment: In vitro cytotoxicity CellTiterGlo 72 h, KMS12PE Bcl2 D103E; assay type: cell-based; conditions: Homo sapiens, KMS-12-PE, read-out: C50 nM, KMS12PE Bcl2 D103E
Method: as §1

[12] = test system: KMS12PE; experiment: In vitro cytotoxicity CellTiterGlo 72 h, KMS12PE; assay type: cell-based; conditions: Homo sapiens, KMS-12-PE, read-out: C50 nM, KMS12PE
Method: as §1

[13] = test system: platelets; experiment: Platelet depletion in SCID mice; assay type: in vivo; conditions: 25 mg/kg IV bolus, vs control group; for Platelet loss (%) 6 h: 6 h after dosing; for Platelet loss (%) 24 h: 24 h after dosing
Method: (§2) Pharmacokinetic (PK) and platelet toxicity were investigated in SCID mice. Compounds were administered at 25 mg/kg by IV bolus, and formulated in PEG/Ethanol/NaCl 0.9% (40/10/50 v/v/v).
(§3) Blood samples (3 animals/time point and 3 time points/animal) were collected over 24 h after dosing: 0.05 h, 0.5 h, 1 h, 3 h, 6 h and 24 h for PK and 6 h and 24 h for platelets.
(§4) PK samples were analyzed by liquid chromatography using tandem mass spectrometry detection (LC-MS/MS) and platelet count (109/L) was measured using an hematology analyzer. Percentage of platelet loss was calculated at both time points (T+6 h and 24 h) as compared to a control group of 6 animals. PK parameters (Cinf and AUC24, which correspond to the concentration at the end of bolus administration and the area under curve over 24 h, respectively) were also determined using a non-compartmental analysis.

[14] = molecular target: BCL2 D111A (Homo sapiens, UniProt P10415, D111A); experiment: TR-FRET competitive binding assay, BCL2 D111A; conditions: Ki determined from IC50, read-out: TR_FRET EKI_Bcl2 D111A
Outline: (§5)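 Ki derived from IC50 (11-point dilution, 520/495 nm emission ratio) for displacing a fluorescein-labelled PUMA peptide (2 or 20 nM). Target was 0.5 nM E. coli-expressed Halo-tagged BCL2 (1-207) or BCLXL (2-196), terbium-labelled on Halo. Incubation 2 h at 23°C in pH 7.5 Hepes with 150 mM NaCl and 5% DMSO.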

[15] = molecular target: BCL2 WT (Homo sapiens (Human), UniProt P10415); experiment: TR-FRET competitive binding assay, BCL2 WT; conditions: Ki determined from IC50, read-out: TR_FRET EKI_Bcl2 WT
Outline: as §5

[16] = test system: BCL2 G101V; experiment: TR-FRET competitive binding assay, BCL2 G101V; parameters: species or system human; conditions: ratio Ki BCL2 G101V / Ki BCL2 WT
Outline: as §5

[17] = molecular target: BCL2 G101V (Homo sapiens, UniProt P10415, G101V); experiment: TR-FRET competitive binding assay, BCL2 G101V; conditions: BCL2 G101V; Ki determined from IC50; read-out: TR_FRET EKI_Bcl2 G101V
Outline: as §5

[18] = test system: KMS-12-PE Bcl-2 WT; experiment: In vitro cytotoxicity CellTiter-Glo 48 h, KMS-12-PE Bcl-2 WT; assay type: cell-based; conditions: Homo sapiens, KMS-12-PE, C50 = concentration needed to reach 50% of the cellular viability
Outline: (§6)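 KMS-12-PE myeloma cells lentivirally transduced with Bcl-2 WT or G101V (TagRFP-sorted), exposed to compound 11-point dose-response for 48 h at 37 °C, 5% CO2. Viability read by CellTiter-Glo ATP luminescence; C50 is the concentration giving 50% cellular viability.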

[19] = test system: KMS-12-PE Bcl-2 G101V; experiment: In vitro cytotoxicity CellTiter-Glo 48 h, KMS-12-PE Bcl-2 G101V; assay type: cell-based; conditions: for Ratio (G101V/WT): C50 KMS-12-PE Bcl-2 G101V over C50 KMS-12-PE Bcl-2 WT; for IC50: Homo sapiens, KMS-12-PE, 48 h, CellTiter-Glo, C50 = concentration needed to reach 50% of the cellular viability
Outline: as §6

[20] = molecular target: BCL2 D103Y (Homo sapiens, UniProt P10415, D103Y); experiment: TR-FRET competitive binding assay, BCL2 D103Y; conditions: Ki determined from IC50, read-out: TR_FRET EKI_Bcl2 D103Y
Outline: as §5

[21] = molecular target: BCLXL WT (Homo sapiens (Human), UniProt Q07817); experiment: TR-FRET competitive binding assay, BCLXL WT; conditions: for Ki: BCLXL WT, Ki determined from IC50, read-out: TR_FRET EKI BclxL; for TR_FRET EKI BCLxL/WT selectivty ratio: ratio Ki BCLxL / Ki BCL2 WT
Outline: as §5

[22] = molecular target: BCL2 F104I (Homo sapiens, UniProt P10415, F104I); experiment: TR-FRET competitive binding assay, BCL2 F104I; conditions: Ki determined from IC50, read-out: TR_FRET EKI_Bcl2 F104I
Outline: as §5

[23] = Pharmacokinetics in SCID mice; assay type: in vivo; conditions: 25 mg/kg IV bolus; for PK parameters Cinf: concentration at the end of bolus administration; for AUC: mouse, blood, area under curve over 24 h, read-out: PK parameters AUC24
Method: as §2, §3, §4

Sequence of BCLXL WT (Q07817 other isoform, or with tags, fused parts or gaps): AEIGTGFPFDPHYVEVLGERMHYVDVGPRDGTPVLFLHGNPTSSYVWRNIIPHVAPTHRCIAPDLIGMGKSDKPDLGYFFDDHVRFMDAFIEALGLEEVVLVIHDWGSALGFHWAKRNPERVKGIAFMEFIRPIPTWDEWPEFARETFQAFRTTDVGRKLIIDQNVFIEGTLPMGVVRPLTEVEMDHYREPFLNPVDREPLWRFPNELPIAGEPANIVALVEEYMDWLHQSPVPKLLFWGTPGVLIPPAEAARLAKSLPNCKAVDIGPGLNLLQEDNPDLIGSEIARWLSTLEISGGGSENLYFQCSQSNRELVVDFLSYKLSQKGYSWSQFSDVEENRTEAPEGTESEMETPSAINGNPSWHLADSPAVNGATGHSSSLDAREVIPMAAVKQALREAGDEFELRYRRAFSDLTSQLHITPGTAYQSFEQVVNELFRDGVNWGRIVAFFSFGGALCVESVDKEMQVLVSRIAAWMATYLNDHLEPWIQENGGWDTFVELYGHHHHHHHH

Platelet loss (%) 6 h [13] [%] | Platelet loss (%) 24 h [13] [%] | Ki [14] [nM] | Ki [15] [nM] | TR_FRET EKI G101V/WT selectivty ratio [16] | Ki [17] [nM] | Ki [20] [nM] | Ki [21] [nM] | TR_FRET EKI BCLxL/WT selectivty ratio [21] | Ki [22] [nM] | PK parameters Cinf [23] [µM] | AUC [23] [µM·h] | SMILES | IC50 [18] [µM] | Ratio (G101V/WT) [19] | IC50 [19] [µM] | other results
 |  |  |  |  |  |  |  |  |  |  |  | CC1(C)CCC(CN2CCN(c3ccc(C(=O)NS(=O)(=O)c4ccc(NCC5CCOCC5)c([N+](=O)[O-])c4)c(Oc4cnc5[nH]ccc5c4)c3)CC2)=C(c2ccc(Cl)cc2)C1 [ABT199, Venetoclax, reference compound] |  |  |  | IC50 [1]: 120 nM; IC50 [2]: 590 nM; IC50 [3]: 30.2 nM; IC50 [4]: 1420 nM; IC50 [5]: 1140 nM; IC50 [6]: 1300 nM; IC50 [7]: 22.4 nM; IC50 [8]: 1050 nM; IC50 [9]: 139 nM; IC50 [10]: 42.6 nM; IC50 [11]: 260 nM; IC50 [12]: 5.5 nM
26.9 | 20.2 | 0.18 | 0.2 | 3.5 | 0.7 | 0.71 | 2.3 | 11.5 | 0.46 | 26.5 | 26.7 | Cc1c(N(C(=O)c2cc(-c3cc4c(cc3C(=O)N3Cc5ccccc5C[C@H]3C)CN(C(=O)Cc3ccc(OCCN5C[C@@H](C)O[C@@H](C)C5)cc3)CC4)n(C)c2C)c2ccc(O)cc2)cc(C#N)n1C [Example 39, N-(5-cyano-1,2-dimethyl-1H-pyrrol-3-yl)-5-{2-[2-(4-{2-[cis-2,6-dimethylmorpholin-4-yl]ethoxy}phenyl)acetyl]-7-[(3R)-3-methyl-1,2,3,4-tetrahydroisoquinoline-2-carbonyl]-1,2,3,4-tetrahydroisoquinolin-6-yl}-N-(4-hydroxyphenyl)-1,2-dimethyl-1H-pyrrole-3-carboxamide] | 0.0056 | 4.07 | 0.023 | 
28.6 | 22.5 | 0.4 | 0.1 | 2.7 | 0.3 | 0.11 | 2.3 | 24.0 | 0.52 | 11.4 | 9.2 | Cc1c(N(C(=O)c2cc(-c3cc4c(cc3C(=O)N3Cc5ccccc5C[C@H]3CN3CCOCC3)CN(C(=O)Cc3ccc(OCCC5CCOCC5)cc3F)CC4)n(C)c2C)c2ccc(O)cc2)cc(C#N)n1C [Example 54, N-(5-cyano-1,2-dimethyl-pyrrol-3-yl)-5-[2-[2-[2-fluoro-4-(2-tetrahydropyran-4-ylethoxy)phenyl]acetyl]-7-[(3S)-3-(morpholinomethyl)-3,4-dihydro-1H-isoquinoline-2-carbonyl]-3,4-dihydro-1H-isoquinolin-6-yl]-N-(4-hydroxyphenyl)-1,2-dimethyl-pyrrole-3-carboxamide] | 0.0057 | 4.23 | 0.024 | 
43.5 | 26.9 | 0.17 | 0.06 | 2.8 | 0.2 | 0.19 | 1.6 | 26.7 | 0.28 | 48.5 | 30.5 | Cc1c(N(C(=O)c2cc(-c3cc4c(cc3C(=O)N3Cc5ccccc5C[C@H]3C)CN(C(=O)Cc3ccc(OCCN5CCO[C@H](C)C5)cc3)CC4)n(C)c2C)c2ccc(O)cc2)cc(C#N)n1C [Example 56, N-(5-cyano-1,2-dimethyl-1H-pyrrol-3-yl)-N-(4-hydroxyphenyl)-1,2-dimethyl-5-{7-[(3R)-3-methyl-1,2,3,4-tetrahydroisoquinoline-2-carbonyl]-2-(2-{4-[2-((2R)-2-methylmorpholin-4-yl)ethoxy]phenyl}acetyl)-1,2,3,4-tetrahydroisoquinolin-6-yl}-1H-pyrrole-3-carboxamide] | 0.0048 | 4.21 | 0.0201 | 
